Data: publication PMC3790851, “Improved Mass Spectrometry Assay For Plasma Hepcidin: Detection and Characterization of a Novel Hepcidin Isoform” (PLoS ONE, 2013)

What was measured:
in vitro [1] = conditions: human, heparin plasma
Description: Samples were used for measurement of hepcidin between 4–7 hrs after blood drawing and/or pooled and/or stored in aliquots at various temperatures for prolonged periods of time.
Mass-to-charge (m/z) spectra were generated by using MALDI-TOF MS (Microflex LT, Bruker Daltonics). Spectra were analyzed by using Bruker Daltonics FlexAnalysis software. […] Total hepcidin concentration was defined as the sum of hepcidin-25, -24, -22, and -20 concentrations.

in vitro [2] = conditions: for remaining at 4320 h: human
Description: Serum samples from healthy controls that were used in this study concerned leftover aliquots (stored at −80°C) that were collected in February 2011 [18]. In addition, citrate plasma, heparin plasma, EDTA plasma and serum for stability studies was drawn in the afternoon from healthy volunteers (n = 5), known for having fasted morning hepcidin levels above the lower limit of detection (>0.5 nM) in September 2012. Fresh samples were measured within 2–4 hrs hours after blood drawing and stored in aliquots at various temperatures for prolonged incubation.
Heparin plasma QC samples (n = 2), high and low (HiQC2011 and LoQC2011), were obtained in November 2011 by pooling sample leftover samples from IC patients and iron-depleted HFE-hemochromatosis patients, respectively. Serum QC samples (n = 2), high and low (HiQC2009 and LoQC2009), were obtained in April 2009 from 2 blood donors from the local blood donation centre. To obtain the high QC sample, serum of one of the donors with a native hepcidin concentration <1 nM was spiked with synthetic hepcidin-25 from Peptide International (PI, Louisville, KY, USA) to a concentration of 9 nM.
WCX-TOF MS was performed between October 2011 and March 2013 as described previously by a combination of WCX bead-based hepcidin enrichment followed by TOF-MS [6]. As internal standards for quantification were used: i) synthetic hepcidin-24 (custom made Peptide International, 2673.9 Da; [5]); ii) novel custom made heavy hepcidin-25^+40 (see below, Table 1). Mass-to-charge (m/z) spectra were generated by using MALDI-TOF MS (Microflex LT, Bruker Daltonics). Spectra were analyzed by using Bruker Daltonics FlexAnalysis software. A detailed protocol of this method is described in [6]. Total hepcidin concentration was defined as the sum of hepcidin-25, -24, -22, and -20 concentrations.
Using the novel heavy hepcidin-25 internal standard, we assessed changes in hepcidin-25 and the smaller isoforms in various samples containing various anticoagulants ex vivo at room temperature (RT), 4°C, −20°C and −80°C. More specifically, changes in hepcidin concentrations relative to those found in freshly collected samples were determined i) at storage at RT and 4°C on day 0 (fresh samples), 1 (14–22 hrs), 2, 3, and 7 days after sampling/storage, ii) at −20°C after 1 week, and after 1, 4 and 6 months of storage and iii) at −80°C at after 6 months of storage. We also assessed the effect of the addition of protease inhibitors on the stability of hepcidin concentrations of heparin plasma of IC patients at RT during a 1 week storage. To this end, before storage we used 1 tablet of protease inhibitor (Complete, Mini, Roche Diagnostics, Mannheim, Germany) solved in 200 µL PBS, of which 20 µL was added to 1 ml plasma. Finally, we used our QC charts to assess the stability of hepcidin concentrations in heparin plasma and serum QC aliquots stored at −80°C for 2 years.

[3] = molecular target: T1, green fluorescent protein (GFP)-fused human ferroportin (Homo sapiens, UniProt Q9NP59); assay: Hepcidin bioactivity assay: GFP-ferroportin internalization and degradation; format: cell-based; conditions: stable cell line, inducible GFP-fused human ferroportin; fluorescence in triplicate wells; four parameter logistic fit; 95% confidence interval: hepcidin-24 126.8 nM - 289.2 nM, hepcidin-25 12.2 nM –17.8 nM; read-out: EC50 for ferroportin internalization and degradation
T1 construct: expressed in transfected cells
T1 sequence (Q9NP59 1-571): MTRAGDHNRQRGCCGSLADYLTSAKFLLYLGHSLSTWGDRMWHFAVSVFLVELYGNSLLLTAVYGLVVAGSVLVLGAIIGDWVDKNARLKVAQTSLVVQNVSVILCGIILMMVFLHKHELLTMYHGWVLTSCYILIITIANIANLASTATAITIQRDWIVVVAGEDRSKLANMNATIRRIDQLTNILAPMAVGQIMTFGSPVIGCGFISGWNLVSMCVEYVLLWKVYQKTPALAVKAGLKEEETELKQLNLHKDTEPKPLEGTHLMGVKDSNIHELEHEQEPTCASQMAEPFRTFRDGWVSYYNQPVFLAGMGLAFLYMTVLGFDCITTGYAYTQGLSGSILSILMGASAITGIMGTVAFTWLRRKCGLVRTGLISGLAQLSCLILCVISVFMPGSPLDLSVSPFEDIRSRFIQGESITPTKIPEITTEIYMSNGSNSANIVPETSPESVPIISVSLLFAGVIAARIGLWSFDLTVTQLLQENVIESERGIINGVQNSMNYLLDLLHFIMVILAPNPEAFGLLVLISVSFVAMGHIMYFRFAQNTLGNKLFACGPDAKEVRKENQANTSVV
From the text: A stable cell line engineered for inducible expression of green fluorescent protein (GFP)-fused human ferroportin was used as a test system to determine hepcidin-24 activity relative to hepcidin-25, 22 and 20. In this cell system, ferroportin internalization and degradation provided a means to quantify hepcidin activity. The assay was implemented basically as described by Nemeth et al., [33] except that fluorescence was quantified in triplicate wells on a microplate reader. To determine EC50 values for hepcidin-25 and hepcidin-24, a curve was fitted by nonlinear regression with a four parameter logistic equation using Prism v5 (GraphPad).
Figure 5 Hepcidin-mediated ferroportin internalization. Different concentrations of synthetic hepcidin-25, -24, -22 and -20 (indicated in nM on the horizontal axis) were added to the growth medium of a stable cell line that expresses green fluorescent protein-fused ferroportin (GFP-FPN). Hepcidin-mediated GFP-FPN internalization and degradation was quantified by measuring cellular fluorescence levels in arbitrary units.

CC[C@H](C)[C@@H]1NC(=O)[C@@H](NC(=O)[C@@H](NC(=O)[C@@H]2CCCN2C(=O)[C@H](Cc2ccccc2)NC(=O)[C@H](Cc2c[nH]cn2)NC(=O)[C@@H](NC(=O)[C@@H](N)CC(=O)O)[C@@H](C)O)[C@@H](C)CC)CSSC[C@@H](C(=O)N[C@@H](CCCCN)C(=O)N[C@H](C(=O)O)[C@@H](C)O)NC(=O)[C@@H]2CSSC[C@H](NC(=O)[C@H](Cc3ccccc3)NC1=O)C(=O)N[C@H]1CSSC[C@H](NC(=O)[C@H](CCCCN)NC(=O)[C@H](CO)NC(=O)[C@H](CCCNC(=N)N)NC(=O)[C@H](Cc3c[nH]cn3)NC(=O)[C@@H]3CSSC[C@H](NC(=O)CNC1=O)C(=O)N3)C(=O)NCC(=O)N[C@@H](CCSC)C(=O)N2 [Hepcidin-25]
Hepcidin level after one day at 4°C, EDTA plasma (average, % of fresh, 10 IC patients and 5 controls, results <1.0 nM deleted, CV (Hep-25/-24/-22/-20) 11/6/11/22, n = 15/8/6/9): 101% | Hepcidin level after one week at 4°C, EDTA plasma (average, % of fresh, 7 days, 10 IC patients and 5 controls, CV (Hep-25/-24/-22/-20) 9/8/18/21, n = 15/8/6/9, hepcidin-20 in stored EDTA plasma unreliable (additional peak)): 101% | stability at 4°C for 0–7 days (heparin and EDTA plasma (10 IC patients, 5 controls), citrate plasma and serum (5 controls)): remained stable | remaining at 168 h (in vitro [1]): 99% | stable at -80°C for, QC heparin plasma (in vitro [2]; QC heparin plasma samples, heavy hepcidin internal standard): at least 1.5 years | stable at -80°C for, QC serum (in vitro [2]; QC serum samples, former hepcidin-24 internal standard): 2 years | Hepcidin level after 6 months at -80°C, EDTA plasma (in vitro [2]; average, 5 controls, CV 5): 96% | Hepcidin level after 6 months at -80°C, citrate plasma (in vitro [2]; average, 5 controls, CV 5): 96% | remaining at 4320 h (in vitro [2]; heparin plasma): 95% | remaining at 4320 h (in vitro [2]; serum): 94% | average decrease in hepcidin-25 after 6 months at -80°C (in vitro [2]; serum, heparin, EDTA and citrate plasma, 5 healthy volunteers, not significant): 4–6% | EC50 [3]: 14.7 nM
